Assay results taken from ChEMBL document CHEMBL4765252, “Design, synthesis, and biological evaluation of novel 4H-chromen-4-one derivatives as antituberculosis agents against multidrug-resistant tuberculosis” (Eur J Med Chem, 2020).
Converted amounts (≈) assume the structure as drawn.

Experiments:
Type in all cases: functional
[1] = system: Mycobacterium tuberculosis; assay: Antitubercular activity against INH, SM, RFP, EMB, RBT, PAS, OLFX-resistant Mycobacterium tuberculosis 13946 assessed as inhibition of bacterial growth
[2] = system: Mycobacterium tuberculosis; assay: Antitubercular activity against INH, SM, RFP, EMB, PAS, Prothionamide 1321, Capreomycin-resistant Mycobacterium tuberculosis 14862 assessed as inhibition of bacterial growth
[3] = system: Mycobacterium tuberculosis; assay: Antitubercular activity against isoniazid, rifampicin, fluoroquinolones-resistant Mycobacterium tuberculosis assessed as inhibition of bacterial growth incubated for 6 days by MABA assay; details: 144 h, time 6 day

Structure (SMILES)	MIC [1] [µg/mL]	MIC [2] [µg/mL]	MIC [3] [µM]
NNC(=O)c1ccncc1 [ISONIAZID]	2.38 (≈ 17.3 µM)	> 10	
CCOC(=O)c1c(NC(=O)c2c(F)c(F)c(F)c(F)c2F)sc2c1CCN(CC)C2			0.2 (≈ 0.0897 µg/mL)
O=c1cc(-c2ccc(O)cc2)oc2ccc(O)c(CN3CCCC3)c12	3.81 (≈ 11.3 µM)	3.82 (≈ 11.3 µM)	
O=c1cc(-c2ccc(O)cc2)oc2ccc(O)c(CN3CCC3)c12	1.76 (≈ 5.43 µM)	1.64 (≈ 5.08 µM)	
CO[C@H]1/C=C/O[C@@]2(C)Oc3c(C)c(O)c4c(O)c(c(/C=N/N5CCN(C)CC5)c(O)c4c3C2=O)NC(=O)/C(C)=C\C=C\[C@H](C)[C@H](O)[C@@H](C)[C@@H](O)[C@@H](C)[C@H](OC(C)=O)[C@@H]1C [RIFAMPIN]	> 10	> 10	
